Legend:
[1] = test system: Euphorbia heterophylla; experiment: Herbicidal activity against Euphorbia heterophylla in Abelmoschus esculentus plots assessed as weed recovery at 0.33 kg a.i/ha after 2 weeks (reference value: 60.1 +/- 0.46 %); format: functional
[2] = test system: Talinum fruticosum; experiment: Herbicidal activity against Talinum fruticosum in Corchorus olitorius plots assessed as weed cover at 0.99 kg a.i/ha after 2 weeks (reference value: 81.7 +/- 0.43 %); format: functional
[3] = test system: Rottboellia cochinchinensis; experiment: Herbicidal activity against Rottboellia cochinchinensis in Corchorus olitorius plots assessed as weed cover at 0.33 kg a.i/ha after 2 weeks (reference value: 81.7 +/- 0.43 %); format: functional
[4] = test system: Euphorbia heterophylla; experiment: Herbicidal activity against Euphorbia heterophylla in Abelmoschus esculentus plots assessed as weed cover at 0.99 kg a.i/ha after 4 weeks (reference value: 22.6 +/- 0.49 %); format: functional
[5] = test system: Abelmoschus esculentus; experiment: Phytotoxicity in Abelmoschus esculentus assessed as crop seedling injury at 0.33 kg a.i/ha after 2 weeks relative to untreated control; format: organism-based; settings: in vivo, 336 h
[6] = test system: Euphorbia heterophylla; experiment: Herbicidal activity against Euphorbia heterophylla in Abelmoschus esculentus plots assessed as weed cover at 1.32 kg a.i/ha after 2 weeks (reference value: 63.5 +/- 0.29 %); format: functional
[7] = test system: Rottboellia cochinchinensis; experiment: Herbicidal activity against Rottboellia cochinchinensis in Abelmoschus esculentus plots assessed as weed cover at 0.33 kg a.i/ha after 7 weeks (reference value: 14.7 +/- 0.46 %); format: functional
[8] = test system: Ageratum conyzoides; experiment: Herbicidal activity against Ageratum conyzoides in Corchorus olitorius plots assessed as weed cover at 0.33 kg a.i/ha after 2 weeks (reference value: 81.7 +/- 0.43 %); format: functional
[9] = test system: Abelmoschus esculentus; experiment: Phytotoxicity in Abelmoschus esculentus assessed as seed germination at 0.99 kg a.i/ha applied as solution after 7 weeks (reference value: 85.7 +/- 0.36 %); format: organism-based; settings: in vivo, other, 1176 h
[10] = test system: Synedrella nodiflora; experiment: Herbicidal activity against Synedrella nodiflora in Abelmoschus esculentus plots assessed as weed cover at 0.33 kg a.i/ha after 7 weeks (reference value: 14.7 +/- 0.46 %); format: functional
[11] = test system: Abelmoschus esculentus; experiment: Phytotoxicity in Abelmoschus esculentus assessed as seedling injury at 0.33 kg a.i/ha applied as solution after 7 weeks relative to control; format: organism-based; settings: in vivo, other, 1176 h
[12] = test system: Commelina diffusa; experiment: Herbicidal activity against Commelina diffusa in Corchorus olitorius plots assessed as weed cover at 0.66 kg a.i/ha after 4 weeks (reference value: 20.1+/- 0.57 %); format: functional
[13] = test system: Corchorus olitorius; experiment: Phytotoxicity in Corchorus olitorius assessed as shoot length at 0.99 kg a.i/ha applied as solution after 7 weeks (reference value: 22.9 +/- 0.8 mm); format: organism-based; settings: in vivo, other, 1176 h
[14] = test system: Calopogonium mucunoides; experiment: Herbicidal activity against Calopogonium mucunoides in Corchorus olitorius plots assessed as weed recovery at 0.66 kg a.i/ha after 2 weeks (reference value: 78.3 +/- 0.74 %); format: functional
[15] = test system: Corchorus olitorius; experiment: Phytotoxicity in Corchorus olitorius assessed as seedling emergence at 0.66 kg a.i/ha treated to soil after 7 weeks (reference value: 95 +/- 0.05 %); format: organism-based; settings: in vivo, other, 1176 h
[16] = test system: Abelmoschus esculentus; experiment: Phytotoxicity in Abelmoschus esculentus assessed as crop seedling injury at 0.66 kg a.i/ha after 2 weeks relative to untreated control; format: organism-based; settings: in vivo, 336 h
[17] = test system: Rottboellia cochinchinensis; experiment: Herbicidal activity against Rottboellia cochinchinensis in Abelmoschus esculentus plots assessed as weed recovery at 0.33 kg a.i/ha after 2 weeks (reference value: 60.1 +/- 0.46 %); format: functional
[18] = test system: Cyperus rotundus; experiment: Herbicidal activity against Cyperus rotundus in Corchorus olitorius plots assessed as weed cover at 0.66 kg a.i/ha after 2 weeks (reference value: 81.7 +/- 0.43 %); format: functional
[19] = test system: Chromolaena odorata; experiment: Herbicidal activity against Chromolaena odorata in Corchorus olitorius plots assessed as weed cover at 0.99 kg a.i/ha after 4 weeks (reference value: 20.1+/- 0.57 %); format: functional
[20] = test system: Synedrella nodiflora; experiment: Herbicidal activity against Synedrella nodiflora in Corchorus olitorius plots assessed as weed recovery at 0.99 kg a.i/ha after 2 weeks (reference value: 78.3 +/- 0.74 %); format: functional
[21] = test system: Calopogonium mucunoides; experiment: Herbicidal activity against Calopogonium mucunoides in Corchorus olitorius plots assessed as weed cover at 0.99 kg a.i/ha after 2 weeks (reference value: 81.7 +/- 0.43 %); format: functional
[22] = test system: Mimosa pudica; experiment: Herbicidal activity against Mimosa pudica in Abelmoschus esculentus plots assessed as weed cover at 0.33 kg a.i/ha after 7 weeks (reference value: 14.7 +/- 0.46 %); format: functional
[23] = test system: Calopogonium mucunoides; experiment: Herbicidal activity against Calopogonium mucunoides in Corchorus olitorius plots assessed as weed cover at 0.66 kg a.i/ha after 2 weeks (reference value: 81.7 +/- 0.43 %); format: functional
[24] = test system: Cyperus rotundus; experiment: Herbicidal activity against Cyperus rotundus in Abelmoschus esculentus plots assessed as weed cover at 0.66 kg a.i/ha after 2 weeks (reference value: 63.5 +/- 0.29 %); format: functional
[25] = test system: Abelmoschus esculentus; experiment: Phytotoxicity in Abelmoschus esculentus assessed as shoot length at 0.99 kg a.i/ha treated to soil after 7 weeks (reference value: 8.5 +/- 0.34 mm); format: organism-based; settings: in vivo, other, 1176 h
[26] = test system: Chromolaena odorata; experiment: Herbicidal activity against Chromolaena odorata in Corchorus olitorius plots assessed as weed recovery at 0.99 kg a.i/ha after 2 weeks (reference value: 78.3 +/- 0.74 %); format: functional
[27] = test system: Synedrella nodiflora; experiment: Herbicidal activity against Synedrella nodiflora in Abelmoschus esculentus plots assessed as weed cover at 0.33 kg a.i/ha after 2 weeks (reference value: 63.5 +/- 0.29 %); format: functional
[28] = test system: Mimosa pudica; experiment: Herbicidal activity against Mimosa pudica in Abelmoschus esculentus plots assessed as weed cover at 0.33 kg a.i/ha after 2 weeks (reference value: 63.5 +/- 0.29 %); format: functional
[29] = test system: Talinum fruticosum; experiment: Herbicidal activity against Talinum fruticosum in Abelmoschus esculentus plots assessed as minor weed growth at 0.99 kg a.i/ha after 2 weeks; format: functional
[30] = test system: Calopogonium mucunoides; experiment: Herbicidal activity against Calopogonium mucunoides in Corchorus olitorius plots assessed as weed cover at 1.32 kg a.i/ha after 7 weeks (reference value: 1.7 +/- 0.56 %); format: functional
[31] = test system: Commelina diffusa; experiment: Herbicidal activity against Commelina diffusa in Corchorus olitorius plots assessed as weed cover at 0.66 kg a.i/ha after 7 weeks (reference value: 1.7 +/- 0.56 %); format: functional
[32] = test system: Synedrella nodiflora; experiment: Herbicidal activity against Synedrella nodiflora in Corchorus olitorius plots assessed as minor weed growth at 1.32 kg a.i/ha after 2 weeks; format: functional
[33] = test system: Calopogonium mucunoides; experiment: Herbicidal activity against Calopogonium mucunoides in Abelmoschus esculentus plots assessed as weed cover at 1.32 kg a.i/ha after 4 weeks (reference value: 22.6 +/- 0.49 %); format: functional
[34] = test system: Mimosa pudica; experiment: Herbicidal activity against Mimosa pudica in Abelmoschus esculentus plots assessed as weed cover at 0.33 kg a.i/ha after 4 weeks (reference value: 22.6 +/- 0.49 %); format: functional
[35] = test system: Synedrella nodiflora; experiment: Herbicidal activity against Synedrella nodiflora in Abelmoschus esculentus plots assessed as weed cover at 0.33 kg a.i/ha after 4 weeks (reference value: 22.6 +/- 0.49 %); format: functional
[36] = test system: Calopogonium mucunoides; experiment: Herbicidal activity against Calopogonium mucunoides in Abelmoschus esculentus plots assessed as weed cover at 1.32 kg a.i/ha after 2 weeks (reference value: 63.5 +/- 0.29 %); format: functional

## CCC(CC)Nc1c([N+](=O)[O-])cc(C)c(C)c1[N+](=O)[O-] [PENDIMETHALIN]
[1]
  Activity: 39.2%
[2]
  Activity: 51.7%
[3]
  Activity: 63.3%
[4]
  Activity: 39.2%
[5]
  Activity: 39.9%
[6]
  Activity: 45%
[7]
  Activity: 90%
[8]
  Activity: 63.3%
[9]
  Activity: 41.1%
[10]
  Activity: 90%
[11]
  Activity: 29.9%
[12]
  Activity: 63.3%
[13]
  Activity: 5.7 mm
[14]
  Activity: 33.3%
[15]
  Activity: 83.3%
[16]
  Activity: 42.1%
[17]
  Activity: 39.2%
[18]
  Activity: 51.7%
[19]
  Activity: 48.3%
[20]
  Activity: 21.7%
[21]
  Activity: 51.7%
[22]
  Activity: 90%
[23]
  Activity: 51.7%
[24]
  Activity: 50.8%
[25]
  Activity: 5.6 mm
[26]
  Activity: 21.7%
[27]
  Activity: 56.8%
[28]
  Activity: 56.8%
[29]
  Activity: 1 /m2
[30]
  Activity: 95%
[31]
  Activity: 100%
[32]
  Activity: 1 /m2
[33]
  Activity: 36.2%
[34]
  Activity: 53.8%
[35]
  Activity: 53.8%
[36]
  Activity: 45%

Source: ChEMBL document CHEMBL3044789, “Comparing weed and crop seedling response to pre-emergence pendimethalin application in Corchorus olitorius and Abelmoschus esculentus” (Crop Prot, 2006)
